Data as given in patent US12492185B2, “Benzimidazole derivatives and their uses” (Teijin Pharma Limited, priority 2019, dated 2025).

Each molecule was assayed against T1, human TRPC6 (Homo sapiens, UniProt Q9Y210) (assay: TRPC6 Calcium Flux Assay). Conditions: inhibition of OAG-triggered calcium influx in HEK293 cells stably transfected with human TRPC6; FLIPR; 25 min compound preincubation; 50 uM OAG; read-out: hTRPC6 Potency.
T1 construct: expressed in transfected cells
T1 sequence (Q9Y210 1-931): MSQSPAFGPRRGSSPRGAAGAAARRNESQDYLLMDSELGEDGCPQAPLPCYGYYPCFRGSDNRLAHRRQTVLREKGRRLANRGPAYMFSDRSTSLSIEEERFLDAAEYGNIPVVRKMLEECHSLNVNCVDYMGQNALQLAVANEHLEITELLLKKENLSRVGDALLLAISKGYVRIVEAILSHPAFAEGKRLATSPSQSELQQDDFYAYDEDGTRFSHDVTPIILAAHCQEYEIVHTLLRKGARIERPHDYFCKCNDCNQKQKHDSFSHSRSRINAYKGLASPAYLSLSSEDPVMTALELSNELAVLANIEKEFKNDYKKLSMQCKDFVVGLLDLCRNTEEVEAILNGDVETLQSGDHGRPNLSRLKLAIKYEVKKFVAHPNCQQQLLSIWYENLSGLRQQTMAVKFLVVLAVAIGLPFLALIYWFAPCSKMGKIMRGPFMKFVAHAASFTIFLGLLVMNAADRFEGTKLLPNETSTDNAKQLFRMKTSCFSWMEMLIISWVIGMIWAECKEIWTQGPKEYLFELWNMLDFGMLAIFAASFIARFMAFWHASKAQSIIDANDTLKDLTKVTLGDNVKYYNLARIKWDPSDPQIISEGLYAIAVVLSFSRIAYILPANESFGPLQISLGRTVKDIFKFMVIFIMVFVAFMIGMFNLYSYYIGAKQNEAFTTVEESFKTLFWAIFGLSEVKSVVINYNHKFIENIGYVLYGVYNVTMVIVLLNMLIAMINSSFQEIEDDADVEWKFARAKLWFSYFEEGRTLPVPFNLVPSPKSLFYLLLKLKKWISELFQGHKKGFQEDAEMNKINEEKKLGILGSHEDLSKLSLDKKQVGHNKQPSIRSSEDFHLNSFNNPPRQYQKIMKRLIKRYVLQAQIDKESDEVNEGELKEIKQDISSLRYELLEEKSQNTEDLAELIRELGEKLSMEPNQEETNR
Format: cell-based
Description: Potency of TRPC6 (Transient receptor potential channel family C6) inhibitors were measured by their inhibition of Calcium influx trigged by OAG (1-Oleoyl-2-acetyl-sn-glycerol, Millipore Sigma, O6754) stimulation on HEK293 cells stably transfected with human TRPC6 using a FLIPR tetra system (BD PBX Calcium Assay Kit; BD Biosciences, San Jose Calif.). Cells were grown in a humidified environment at 37° C. under 5% CO2 using the growth medium with the following selective reagents (Dulbecco's Modified Eagle's Medium (DMEM) high glucose, 10% Fetal Bovine Serum, 1×PSGlu (penicillin-streptomycin glutamine), 1×NEAA (Non-essential amino acid), 1×Na Pyruvate and 200 ug/ml Hygromycin). For general passage, cells were grown to 70-90% confluency; the media was removed, and the cells were gently washed 2 times with calcium and magnesium free PBS (phosphate-buffered saline). Trypsin (3 mL) was applied for 5 minutes at 37° C. The cells were dislodged by rapping flask against base of a hand and 7 mL of growth medium was added to deactivate trypsin and re-suspend cells. The usual splitting schedule was 1:5 every 2-3 days.
Cells were plated the day before the assay, plating cell density is 1.0-1.5×10^4/25 μl/well in poly-D-lysine (PDL) coated 384-well plates using either multichannel pipettes or multidrop. These cells were first incubated with fluorescence dye at room temperature for 90-120 minutes after they were grown on PDL-coated 384-well black plates overnight (Dye loading buffer 10 ml example: 9 mL assay buffer, 1 mL, 10×PBX signal enhancer, 10 μL Calcium indicator). The cells were incubated with a dose of compounds for 25 minutes before being stimulated with TRPC6 agonist OAG. The OAG solution was prepared by adding OAG into assay buffer (Ca ringer solution base: 10 mM HEPES (4-(2-hydroxyethyl)-1-piperazine-ethanesulfonic acid), 4 mM MgCl2, 120 mM NaCl, 5 mM KCl, pH=7.2 @25° C.)+0.1% BSA+2 mM CaCl2) to the concentration of 0.2 mM/2% DMSO, which achieves a final on cell concentration of 50 uM/0.5% DMSO. 12.5 uL OAG mixture was added and the activation of the TRPC6 channel was measured by the change of intracellular Calcium levels on FLIPR terra system.
Data was acquired by measuring the fluorescent peak signal subtracted from the background during the 180 second imaging frame. Each data point is further normalized to 100% of OAG triggered signal vs. buffer. Table 3 provides the IC50 for each compound, which data is obtained by plotting peak signal over the compound dose.
Molecule `N[C@@H]1CN(c2nc3cc(F)ccc3n2Cc2ccc(F)cn2)CC[C@H]1F` (single isomer, unassigned) [Example 1] has an IC50 of 0.7 nM.
`N[C@@H]1CN(c2nc3cc(F)cc(F)c3n2Cc2ccc(F)cn2)CCC1(F)F` (single isomer, unassigned) [Example 2] was tested, and the IC50 was 2.2 nM.
Work on `N[C@@H]1CN(c2nc3ccc(F)cc3n2Cc2ncc(F)cn2)CC[C@H]1F` (single isomer, unassigned) [Example 3] yielded an IC50 of 0.2 nM.
With `N[C@@H]1CN(c2nc3ccc(F)cc3n2Cc2ccc(F)cn2)CC[C@H]1F` (single isomer, unassigned) [Example 4] the IC50 was 0.4 nM.
With `N[C@@H]1CN(c2nc3cc(F)ccc3n2Cc2ccc(Cl)cn2)CCC1(F)F` (single isomer, unassigned) [Example 5] the IC50 was 0.3 nM.
Molecule `N[C@@H]1CN(c2nc3ccc(F)cc3n2Cc2ncc(Cl)cn2)CCC1(F)F` (single isomer, unassigned) [Example 6] has an IC50 of 1 nM.
Molecule `N[C@@H]1CN(c2nc3ccc(F)cc3n2Cc2ccc(F)cn2)CCC1(F)F` (single isomer, unassigned) [Example 7] has an IC50 of 22.9 nM.
`COc1cnc(Cn2c(N3CC[C@@H](F)[C@H](N)C3)nc3c(F)cc(F)cc32)nc1` (single isomer, unassigned) [Example 9] was tested, and the IC50 was 0.5 nM.
Molecule `N[C@@H]1CN(c2nc3ccc(F)cc3n2Cc2ccc(Cl)cn2)CCC1(F)F` (single isomer, unassigned) [Example 10] has an IC50 of 2.5 nM.
For `N[C@@H]1CN(c2nc3cc(F)ccc3n2Cc2ncc(F)cn2)CC[C@H]1F` (single isomer, unassigned) [Example 11], the IC50 was 0.4 nM.
In the case of `N[C@@H]1CN(c2nc3ccc(F)cc3n2Cc2ccc(Cl)cn2)CC[C@H]1F` (single isomer, unassigned) [Example 12, (3R.4R)-1-(1-((5-chloro-2-pyridinyl)methyl)-6-fluoro-1H-benzimidazol-2-yl)-4-fluoro-3-piperidinamine], the IC50 is reported as 1 nM.
`N#Cc1ccc2nc(N3CCC(F)(F)[C@H](N)C3)n(Cc3ccc(Cl)cn3)c2c1` (single isomer, unassigned) [Example 13] was tested, and the IC50 was 1.3 nM.
For `N[C@@H]1CN(c2nc3c(F)cc(F)cc3n2Cc2ncc(Cl)cn2)CCC1(F)F` (single isomer, unassigned) [Example 14], the IC50 was 1.2 nM.
For `N#Cc1cc(F)cc2c1nc(N1CC[C@@H](F)[C@H](N)C1)n2Cc1ccc(F)cn1` (single isomer, unassigned) [Example 15], the IC50 was 1 nM.
`COc1cc(F)c2nc(N3CC[C@@H](F)[C@H](N)C3)n(Cc3ncc(Cl)cn3)c2c1` (single isomer, unassigned) [Example 21] showed an IC50 of 0.4 nM.
For `Cc1ccc(Cn2c(N3CC[C@@H](F)[C@H](N)C3)nc3cc(F)c(F)cc32)nc1` [Example 8, (3R,4R)-1-(5,6-difluoro-1-((5-methyl-2-pyridinyl)methyl)-1H-benzimidazol-2-yl)-4-fluoro-3-piperidinamine], the IC50 was 0.1 nM.
In the case of `N[C@@H]1CN(c2nc3cc(F)c(F)cc3n2Cc2ccc(Cl)cn2)CCC1(F)F` [Example 16, (3R)-1-(1-((5-chloro-2-pyridinyl)methyl)-5,6-difluoro-1H-benzimidazol-2-yl)-4,4-difluoro-3-piperidinamine], the IC50 is reported as 0.6 nM.
`N[C@@H]1CN(c2nc3cc(F)c(F)cc3n2Cc2ncc(Cl)cn2)CCC1(F)F` [Example 17, (3R)-1-(1-((5-chloro-2-pyrimidinyl)methyl)-5,6-difluoro-1H-benzimidazol-2-yl)-4,4-difluoro-3-piperidinamine] showed an IC50 of 0.6 nM.
Work on `N[C@@H]1CN(c2nc3cc(F)c(F)cc3n2Cc2ncc(Cl)cn2)CC[C@H]1F` [Example 18, (3R,4R)-1-(1-((5-chloro-2-pyrimidinyl)methyl)-5,6-difluoro-1H-benzimidazol-2-yl)-4-fluoro-3-piperidinamine] yielded an IC50 of 1.2 nM.
For `COc1cnc(Cn2c(N3CC[C@@H](F)[C@H](N)C3)nc3cc(F)c(F)cc32)nc1` [Example 19, (3R,4R)-1-(5,6-difluoro-1-((5-methoxy-2-pyrimidinyl)methyl)-1H-benzimidazol-2-yl)-4-fluoro-3-piperidinamine], the IC50 was 1.2 nM.
Work on `N#Cc1cccc(Cn2c(N3CC[C@@H](F)[C@H](N)C3)nc3cc(F)c(F)cc32)n1` [Example 20, 6-((2-((3R,4R)-3-amino-4-fluoro-1-piperidinyl)-5,6-difluoro-1H-benzimidazol-1-yl)methyl)-2-pyridinecarbonitrile] yielded an IC50 of 1.8 nM.
